Where “and” joins values, the source holds several entries; their conditions need not be identical. Equal values may be shown once. Toxic doses and inconclusive results are not listed. No stated cut-off is given here; in the data, active means T/C of 150% or more; inactive means T/C below 125%.
System: L1210 leukemia ip in BDF1 mice, survival T/C
Assay: NCI In Vivo Anticancer Drug Screen. Data for tumor model L1210 Leukemia (intraperitoneal) in B6D2F1 (BDF1) mice
Settings: endpoint: mean survival time, higher = longer survival
Method in brief: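 Ratio derived from survival: compound-dosed mice over vehicle-dosed mice, all bearing a transplantable tumor.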

[1] = dose: 100.0 mg/kg/injection, schedule: Q01DX001 (ip), vehicle: saline with Tween-80
[2] = dose: 100.0 mg/kg/injection, schedule: Q04DX003 (ip), vehicle: saline
[3] = dose: 200.0 mg/kg/injection, schedule: Q04DX003 (ip), vehicle: saline
[4] = dose: 400.0 mg/kg/injection, schedule: Q04DX003 (ip), vehicle: saline
[5] = dose: 100.0 mg/kg/injection, schedule: Q01DX009 (ip), vehicle: Klucel (hydroxypropylcellulose) (HPC)
[6] = dose: 100.0 mg/kg/injection, schedule: Q04DX002 (ip), vehicle: Klucel (hydroxypropylcellulose) (HPC)
[7] = dose: 200.0 mg/kg/injection, schedule: Q01DX009 (ip), vehicle: Klucel (hydroxypropylcellulose) (HPC)
[8] = dose: 200.0 mg/kg/injection, schedule: Q04DX002 (ip), vehicle: Klucel (hydroxypropylcellulose) (HPC)
[9] = dose: 400.0 mg/kg/injection, schedule: Q01DX009 (ip), vehicle: Klucel (hydroxypropylcellulose) (HPC)
[10] = dose: 400.0 mg/kg/injection, schedule: Q04DX002 (ip), vehicle: Klucel (hydroxypropylcellulose) (HPC)
[11] = dose: 100.0 mg/kg/injection, schedule: Q04DX003 (ip), vehicle: Klucel (hydroxypropylcellulose) (HPC)
[12] = dose: 200.0 mg/kg/injection, schedule: Q04DX003 (ip), vehicle: Klucel (hydroxypropylcellulose) (HPC)
[13] = dose: 400.0 mg/kg/injection, schedule: Q04DX003 (ip), vehicle: Klucel (hydroxypropylcellulose) (HPC)
[14] = dose: 100.0 mg/kg/injection, schedule: Q01DX009 (ip), vehicle: saline with Tween-80
[15] = dose: 100.0 mg/kg/injection, schedule: Q01DX001 (ip), vehicle: saline
[16] = dose: 200.0 mg/kg/injection, schedule: Q01DX001 (ip), vehicle: saline
[17] = dose: 400.0 mg/kg/injection, schedule: Q01DX001 (ip), vehicle: saline
[18] = dose: 100.0 mg/kg/injection, schedule: Q01DX009 (ip), vehicle: acetone
[19] = dose: 100.0 mg/kg/injection, schedule: Q04DX003 (ip), vehicle: saline with Tween-80
[20] = dose: 200.0 mg/kg/injection, schedule: Q01DX009 (ip), vehicle: acetone
[21] = dose: 200.0 mg/kg/injection, schedule: Q04DX003 (ip), vehicle: saline with Tween-80
[22] = dose: 400.0 mg/kg/injection, schedule: Q01DX009 (ip), vehicle: acetone
[23] = dose: 400.0 mg/kg/injection, schedule: Q04DX003 (ip), vehicle: saline with Tween-80
[24] = dose: 50.0 mg/kg/injection, schedule: Q01DX009 (ip), vehicle: saline with Tween-80

Measured: T/C

Cc1ccc([I+]c2ccc(C)c(C)c2)cc1C
inactive: dose: 1.0 mg/kg/injection, schedule: Q01DX001 (ip), vehicle: acetone 102 % of control | dose: 2.0 mg/kg/injection, schedule: Q01DX001 (ip), vehicle: acetone 98 % of control | dose: 4.0 mg/kg/injection, schedule: Q01DX001 (ip), vehicle: acetone 105 % of control | dose: 5.9 mg/kg/injection, schedule: Q01DX001 (ip), vehicle: saline 103 % of control | dose: 9.0 mg/kg/injection, schedule: Q01DX001 (ip), vehicle: saline 97 % of control | dose: 13.0 mg/kg/injection, schedule: Q01DX001 (ip), vehicle: saline 100 % of control | dose: 19.0 mg/kg/injection, schedule: Q01DX001 (ip), vehicle: saline 102 % of control | dose: 29.0 mg/kg/injection, schedule: Q01DX001 (ip), vehicle: saline 101 % of control | dose: 45.0 mg/kg/injection, schedule: Q01DX001 (ip), vehicle: saline 98 % of control | dose: 65.0 mg/kg/injection, schedule: Q01DX001 (ip), vehicle: saline with Tween-80 96 % of control | [1] 97 % of control | dose: 150.0 mg/kg/injection, schedule: Q01DX001 (ip), vehicle: saline with Tween-80 94 % of control | dose: 225.0 mg/kg/injection, schedule: Q01DX001 (ip), vehicle: saline with Tween-80 102 % of control | dose: 340.0 mg/kg/injection, schedule: Q01DX001 (ip), vehicle: saline with Tween-80 96 % of control

CC(Br)C1(c2cccc([N+](=O)[O-])c2)OCCO1 (centres undefined)
inactive: [2] 105 % of control | [3] 100 % of control | [4] 108 % of control

O=C(NCCCl)N(c1ccccc1)c1cccc(C(F)(F)F)c1
inactive: dose: 100.0 mg/kg/injection, schedule: Q01DX005 (ip), vehicle: Klucel (hydroxypropylcellulose) (HPC) 102 % of control | [5] 98 % of control | [6] 114 % of control | dose: 200.0 mg/kg/injection, schedule: Q01DX005 (ip), vehicle: Klucel (hydroxypropylcellulose) (HPC) 91 % of control | [7] 98 % of control | [8] 96 % of control | dose: 400.0 mg/kg/injection, schedule: Q01DX005 (ip), vehicle: Klucel (hydroxypropylcellulose) (HPC) 94 % of control | [9] 98 % of control | [10] 104 % of control

Nc1ccc(CCC(=O)Nc2ccc(S(=O)(=O)F)cc2)c(Cl)c1
inactive: [1] 101 % of control | dose: 200.0 mg/kg/injection, schedule: Q01DX001 (ip), vehicle: saline with Tween-80 93 % of control | dose: 400.0 mg/kg/injection, schedule: Q01DX001 (ip), vehicle: saline with Tween-80 88 % of control

COc1cc([N+](=O)[O-])ccc1-c1c(C(=O)O)cccc1[N+](=O)[O-]
inactive: [11] 101 % of control | [12] 95 % of control | [13] 90 % of control

CC(CCl)NC(=O)Nc1cccc2c1CCCC2 (centres undefined)
inactive: [5] 102 % of control | [11] 106 % of control | [7] 103 % of control | [12] 106 % of control | [9] 97 % of control | [13] 103 % of control

CS(=O)(=O)OCCCN(CCCOS(C)(=O)=O)c1ccc(C=Nc2ccc(-c3csc(COc4ccc(Cl)cc4)n3)cc2)cc1
inactive: [14] 97 % of control | dose: 200.0 mg/kg/injection, schedule: Q01DX009 (ip), vehicle: saline with Tween-80 94 % of control | dose: 400.0 mg/kg/injection, schedule: Q01DX009 (ip), vehicle: saline with Tween-80 94 % of control

O=[N+]([O-])c1ccc2[nH]ccc2c1
inactive: [15] 98 % of control | [16] 104 % of control | [17] 102 % of control

CC(=O)CC(=O)NCC(CCN1CCCCC1)(c1cccc2ccccc12)C(C)C (centres undefined)
inactive: dose: 25.0 mg/kg/injection, schedule: Q01DX009 (ip), vehicle: Klucel (hydroxypropylcellulose) (HPC) 106 % of control | dose: 50.0 mg/kg/injection, schedule: Q01DX009 (ip), vehicle: Klucel (hydroxypropylcellulose) (HPC) 95 % of control

c1ccc(CC(Cc2ccccc2)=[N+]2C3CCCC2CC3)cc1
inactive: [2] 92 % of control | [3] 101 % of control | [4] 111 % of control

CC(=O)N1CC=C2c3c1ccc(C)c3C(=O)C2C(N)=O (centres undefined)
inactive: [15] 97 % of control | [16] 94 % of control | [17] 94 % of control

COc1ccc(/C=N\NC(=O)OC(C)(C)C)c(OC)c1OC
inactive: [18] 104 % of control | [19] 105 % of control | [20] 94 % of control | [21] 112 % of control | [22] 96 % of control | [23] 112 % of control

O=P(CCl)(CCl)CCl
inactive: dose: 25.0 mg/kg/injection, schedule: Q01DX009 (ip), vehicle: saline with Tween-80 100 % of control | [24] 92 % of control | [14] 88 % of control and 92 % of control

CCn1ncc2c(Nc3ccccc3)c(C(=O)c3ccccc3)cnc21
inactive: [11] 93 % of control | [12] 97 % of control | [13] 97 % of control

CC1(C(Cl)(Cl)Cl)C=CC(=NOCC(=O)O)C=C1 (centres undefined)
inactive: [6] 98 % of control | [8] 95 % of control | [10] 98 % of control

FCCBr
inactive: dose: 3.12 mg/kg/injection, schedule: Q04DX003 (ip), vehicle: saline 104 % of control | dose: 6.25 mg/kg/injection, schedule: Q04DX003 (ip), vehicle: saline 104 % of control | dose: 12.5 mg/kg/injection, schedule: Q01DX009 (ip), vehicle: water 100 % of control | dose: 12.5 mg/kg/injection, schedule: Q04DX003 (ip), vehicle: saline 107 % of control | dose: 25.0 mg/kg/injection, schedule: Q04DX003 (ip), vehicle: saline 112 % of control | dose: 25.0 mg/kg/injection, schedule: Q04DX003 (ip), vehicle: water 97 % of control | dose: 100.0 mg/kg/injection, schedule: Q04DX003 (ip), vehicle: water 112 % of control

NN(C(=O)c1ccccc1)c1ccccc1
inactive: dose: 75.0 mg/kg/injection, schedule: Q01DX001 (ip), vehicle: carboxymethylcellulose (CMC) 93 % of control | dose: 150.0 mg/kg/injection, schedule: Q01DX001 (ip), vehicle: carboxymethylcellulose (CMC) 98 % of control | dose: 300.0 mg/kg/injection, schedule: Q01DX001 (ip), vehicle: carboxymethylcellulose (CMC) 95 % of control

CCOC(=O)/C(C#N)=C\c1ccc2n1Cc1cc3c(cc1N(C(C)=O)C2)OCO3
inactive: dose: 25.0 mg/kg/injection, schedule: Q04DX002 (ip), vehicle: Klucel (hydroxypropylcellulose) (HPC) 102 % of control | dose: 50.0 mg/kg/injection, schedule: Q04DX002 (ip), vehicle: Klucel (hydroxypropylcellulose) (HPC) 95 % of control | [6] 98 % of control

COc1ccc(OC)c(C(=O)CCCC(=O)O)c1
inactive: [18] 91 % of control | [19] 96 % of control | [20] 86 % of control | [21] 89 % of control | [22] 90 % of control | [23] 91 % of control

ClP1(c2ccccc2)=NP(Cl)(c2ccccc2)=NP(Cl)(c2ccccc2)=NP(Cl)(c2ccccc2)=N1 (centres undefined)
inactive: [24] 97 % of control | [14] 89 % of control

COC(=O)Nc1cccc(C)c1C
inactive: dose: 100.0 mg/kg/injection, schedule: Q04DX003 (ip), vehicle: other 103 % of control | dose: 200.0 mg/kg/injection, schedule: Q04DX003 (ip), vehicle: other 102 % of control | dose: 400.0 mg/kg/injection, schedule: Q04DX003 (ip), vehicle: other 108 % of control

CCCCCOC(=S)S
inactive: dose: 9.37 mg/kg/injection, schedule: Q01DX009 (ip), vehicle: saline 100 % of control | dose: 18.75 mg/kg/injection, schedule: Q01DX009 (ip), vehicle: saline 110 % of control | dose: 37.5 mg/kg/injection, schedule: Q01DX009 (ip), vehicle: saline 98 % of control | [15] 109 % of control | [16] 103 % of control

O=c1[nH]c(=O)n2ncnc2[nH]1
inactive: [2] 100 % of control | [3] 100 % of control | [4] 96 % of control
